Values of other authors, collected in PMC9851200, “Multiparameter phenotypic screening for endogenous TFEB and TFE3 translocation identifies novel chemical series modulating lysosome function” (Autophagy, 2022).

Assays:
Parameters in all cases: method as in original PKIS2 published data
[1] = target: kinases (KINOMEscan panel) (Homo sapiens, UniProt P15056); conditions: BRAF; Published KINOMEscan; ref original PKIS2 published data; cited from earlier work
[2] = target: kinases (KINOMEscan panel) (Homo sapiens, UniProt P23458); conditions: JAK1(JH1domain-catalytic); Published KINOMEscan; ref original PKIS2 published data; cited from earlier work
[3] = target: T1, kinases (KINOMEscan panel) (Homo sapiens, UniProt Q9UQ88); conditions: Published KINOMEscan; ref original PKIS2 published data; cited from earlier work
T1 sequence (Q9UQ88 1-783): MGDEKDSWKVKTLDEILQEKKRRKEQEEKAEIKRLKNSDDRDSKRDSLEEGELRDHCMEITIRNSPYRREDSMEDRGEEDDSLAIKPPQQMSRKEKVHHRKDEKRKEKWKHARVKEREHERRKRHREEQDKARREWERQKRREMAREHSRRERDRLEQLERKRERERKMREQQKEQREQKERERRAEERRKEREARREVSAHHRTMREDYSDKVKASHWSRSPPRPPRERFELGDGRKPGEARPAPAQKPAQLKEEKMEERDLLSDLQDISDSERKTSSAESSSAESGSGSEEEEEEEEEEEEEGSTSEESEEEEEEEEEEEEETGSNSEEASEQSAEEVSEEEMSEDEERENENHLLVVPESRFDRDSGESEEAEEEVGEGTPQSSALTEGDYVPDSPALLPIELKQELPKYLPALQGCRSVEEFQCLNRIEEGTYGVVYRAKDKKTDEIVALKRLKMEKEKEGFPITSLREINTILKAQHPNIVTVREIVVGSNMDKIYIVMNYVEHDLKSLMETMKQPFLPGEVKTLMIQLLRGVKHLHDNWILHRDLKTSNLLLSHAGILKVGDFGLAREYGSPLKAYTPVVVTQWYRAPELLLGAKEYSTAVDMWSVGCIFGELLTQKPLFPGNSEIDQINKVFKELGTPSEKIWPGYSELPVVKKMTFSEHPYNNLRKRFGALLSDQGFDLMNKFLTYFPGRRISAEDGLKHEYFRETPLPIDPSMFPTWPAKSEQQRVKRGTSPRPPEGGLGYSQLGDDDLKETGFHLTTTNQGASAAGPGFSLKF

[4] = target: kinases (KINOMEscan panel) (Homo sapiens, UniProt Q9HBH9); conditions: MKNK2; Published KINOMEscan; ref original PKIS2 published data; cited from earlier work
[5] = target: T2, kinases (KINOMEscan panel) (Homo sapiens, UniProt Q6PHR2); conditions: kinase ULK3; Published KINOMEscan; ref original PKIS2 published data; cited from earlier work
T2 sequence (Q6PHR2 1-472): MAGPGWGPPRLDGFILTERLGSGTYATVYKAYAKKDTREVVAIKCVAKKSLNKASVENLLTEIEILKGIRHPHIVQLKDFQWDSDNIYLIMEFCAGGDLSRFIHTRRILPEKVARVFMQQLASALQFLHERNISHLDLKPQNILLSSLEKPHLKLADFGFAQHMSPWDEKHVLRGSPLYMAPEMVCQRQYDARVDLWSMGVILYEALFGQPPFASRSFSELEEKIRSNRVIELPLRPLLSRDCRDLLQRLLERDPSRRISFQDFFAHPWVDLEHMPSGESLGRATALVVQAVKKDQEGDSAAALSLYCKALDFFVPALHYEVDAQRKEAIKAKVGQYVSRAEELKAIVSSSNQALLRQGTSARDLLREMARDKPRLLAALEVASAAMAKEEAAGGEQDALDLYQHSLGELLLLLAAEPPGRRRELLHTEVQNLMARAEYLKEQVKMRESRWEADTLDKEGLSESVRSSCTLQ

[6] = target: kinases (KINOMEscan panel) (Homo sapiens, UniProt P37023); conditions: ACVRL1; Published KINOMEscan; ref original PKIS2 published data; cited from earlier work
[7] = target: kinases (KINOMEscan panel) (Homo sapiens, UniProt Q9Y6M4); conditions: CSNK1G3; Published KINOMEscan; ref original PKIS2 published data; cited from earlier work
[8] = target: T3, kinases (KINOMEscan panel) (Homo sapiens, UniProt P57078); conditions: RIPK4; Published KINOMEscan; ref original PKIS2 published data; cited from earlier work
T3 sequence (P57078 1-832): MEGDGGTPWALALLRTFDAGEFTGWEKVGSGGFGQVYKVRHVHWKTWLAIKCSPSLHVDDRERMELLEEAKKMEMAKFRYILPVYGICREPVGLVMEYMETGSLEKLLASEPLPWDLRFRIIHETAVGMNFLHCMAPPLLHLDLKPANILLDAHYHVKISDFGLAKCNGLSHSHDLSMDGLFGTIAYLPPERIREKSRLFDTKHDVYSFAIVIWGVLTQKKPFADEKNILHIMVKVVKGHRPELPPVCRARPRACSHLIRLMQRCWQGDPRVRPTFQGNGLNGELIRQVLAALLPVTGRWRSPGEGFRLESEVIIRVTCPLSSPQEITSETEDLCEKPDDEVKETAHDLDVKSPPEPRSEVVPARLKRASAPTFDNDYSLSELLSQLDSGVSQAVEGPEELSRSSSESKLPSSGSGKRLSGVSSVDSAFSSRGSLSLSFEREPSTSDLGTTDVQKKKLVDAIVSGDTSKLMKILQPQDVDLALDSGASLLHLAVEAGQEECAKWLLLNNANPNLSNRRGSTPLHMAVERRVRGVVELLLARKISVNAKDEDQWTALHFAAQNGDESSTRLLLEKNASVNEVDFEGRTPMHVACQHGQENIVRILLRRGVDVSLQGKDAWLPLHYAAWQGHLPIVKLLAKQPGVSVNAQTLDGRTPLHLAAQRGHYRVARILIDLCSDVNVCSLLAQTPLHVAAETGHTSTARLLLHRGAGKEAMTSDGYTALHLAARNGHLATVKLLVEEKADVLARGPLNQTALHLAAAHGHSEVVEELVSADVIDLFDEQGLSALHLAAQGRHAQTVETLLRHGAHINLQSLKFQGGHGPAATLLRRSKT

[9] = target: kinases (KINOMEscan panel) (Homo sapiens, UniProt Q9BUB5); conditions: Published KINOMEscan; ref original PKIS2 published data; cited from earlier work
kinases (KINOMEscan panel) (Homo sapiens, UniProt Q9BUB5), sequence (Q9BUB5 whole entry): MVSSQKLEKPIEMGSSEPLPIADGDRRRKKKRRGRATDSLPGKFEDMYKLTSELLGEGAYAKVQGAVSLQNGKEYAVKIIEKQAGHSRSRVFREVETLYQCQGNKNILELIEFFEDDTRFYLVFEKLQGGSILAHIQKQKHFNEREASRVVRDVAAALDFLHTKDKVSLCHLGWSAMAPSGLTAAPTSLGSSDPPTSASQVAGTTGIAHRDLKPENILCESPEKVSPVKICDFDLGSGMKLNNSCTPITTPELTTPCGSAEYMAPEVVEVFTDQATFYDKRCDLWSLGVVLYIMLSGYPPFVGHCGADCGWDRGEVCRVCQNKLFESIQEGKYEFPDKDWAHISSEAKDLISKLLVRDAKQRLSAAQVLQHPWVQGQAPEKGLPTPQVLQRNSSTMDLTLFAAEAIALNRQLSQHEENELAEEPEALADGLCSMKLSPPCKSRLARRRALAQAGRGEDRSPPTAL

kinases (KINOMEscan panel) (Homo sapiens, UniProt Q9HBH9), sequence (Q9HBH9 whole entry): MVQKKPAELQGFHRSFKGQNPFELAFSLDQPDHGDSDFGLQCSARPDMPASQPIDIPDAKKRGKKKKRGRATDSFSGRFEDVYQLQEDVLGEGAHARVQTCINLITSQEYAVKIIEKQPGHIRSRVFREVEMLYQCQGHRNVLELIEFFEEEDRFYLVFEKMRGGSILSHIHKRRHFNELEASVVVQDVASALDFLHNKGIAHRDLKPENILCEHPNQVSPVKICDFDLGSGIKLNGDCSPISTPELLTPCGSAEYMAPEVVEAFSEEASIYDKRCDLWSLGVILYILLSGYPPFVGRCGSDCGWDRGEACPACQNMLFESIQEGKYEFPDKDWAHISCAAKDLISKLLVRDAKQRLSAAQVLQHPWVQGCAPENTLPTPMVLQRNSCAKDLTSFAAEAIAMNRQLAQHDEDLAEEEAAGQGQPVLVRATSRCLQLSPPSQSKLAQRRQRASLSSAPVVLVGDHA
kinases (KINOMEscan panel) (Homo sapiens, UniProt Q9Y6M4), sequence (Q9Y6M4 whole entry): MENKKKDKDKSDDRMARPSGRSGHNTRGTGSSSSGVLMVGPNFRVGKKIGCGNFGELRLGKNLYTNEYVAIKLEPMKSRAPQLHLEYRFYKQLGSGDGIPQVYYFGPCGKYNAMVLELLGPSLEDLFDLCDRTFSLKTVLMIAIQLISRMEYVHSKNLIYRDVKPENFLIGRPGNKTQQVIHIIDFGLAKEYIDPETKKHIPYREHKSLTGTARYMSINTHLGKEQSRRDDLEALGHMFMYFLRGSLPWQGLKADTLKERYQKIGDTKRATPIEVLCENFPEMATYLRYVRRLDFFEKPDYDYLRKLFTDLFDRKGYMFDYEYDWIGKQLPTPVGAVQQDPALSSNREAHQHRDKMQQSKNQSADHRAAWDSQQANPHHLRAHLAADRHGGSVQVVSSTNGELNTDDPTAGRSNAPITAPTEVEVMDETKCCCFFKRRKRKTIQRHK
kinases (KINOMEscan panel) (Homo sapiens, UniProt P15056), sequence (P15056 whole entry): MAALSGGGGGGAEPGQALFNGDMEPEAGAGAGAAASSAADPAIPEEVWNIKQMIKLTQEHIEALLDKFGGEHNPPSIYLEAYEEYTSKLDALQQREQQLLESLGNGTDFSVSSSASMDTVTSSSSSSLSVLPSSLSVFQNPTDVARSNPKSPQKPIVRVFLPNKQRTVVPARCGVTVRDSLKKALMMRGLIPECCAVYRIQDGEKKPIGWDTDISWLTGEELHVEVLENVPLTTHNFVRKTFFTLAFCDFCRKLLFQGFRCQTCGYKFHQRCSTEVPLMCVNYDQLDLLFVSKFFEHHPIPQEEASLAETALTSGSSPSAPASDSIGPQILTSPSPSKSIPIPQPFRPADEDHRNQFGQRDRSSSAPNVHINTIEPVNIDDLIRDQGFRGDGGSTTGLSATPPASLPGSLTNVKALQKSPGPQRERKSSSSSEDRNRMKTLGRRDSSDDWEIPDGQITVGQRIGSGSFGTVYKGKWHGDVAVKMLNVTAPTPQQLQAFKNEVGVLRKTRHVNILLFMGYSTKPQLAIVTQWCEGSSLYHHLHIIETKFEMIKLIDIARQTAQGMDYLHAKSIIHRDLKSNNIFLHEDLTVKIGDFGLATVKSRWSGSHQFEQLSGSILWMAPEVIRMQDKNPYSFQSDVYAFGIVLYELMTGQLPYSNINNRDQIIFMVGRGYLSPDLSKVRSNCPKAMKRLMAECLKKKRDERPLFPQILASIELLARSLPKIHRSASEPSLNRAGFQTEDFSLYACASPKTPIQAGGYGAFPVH
kinases (KINOMEscan panel) (Homo sapiens, UniProt P23458), sequence (P23458 whole entry): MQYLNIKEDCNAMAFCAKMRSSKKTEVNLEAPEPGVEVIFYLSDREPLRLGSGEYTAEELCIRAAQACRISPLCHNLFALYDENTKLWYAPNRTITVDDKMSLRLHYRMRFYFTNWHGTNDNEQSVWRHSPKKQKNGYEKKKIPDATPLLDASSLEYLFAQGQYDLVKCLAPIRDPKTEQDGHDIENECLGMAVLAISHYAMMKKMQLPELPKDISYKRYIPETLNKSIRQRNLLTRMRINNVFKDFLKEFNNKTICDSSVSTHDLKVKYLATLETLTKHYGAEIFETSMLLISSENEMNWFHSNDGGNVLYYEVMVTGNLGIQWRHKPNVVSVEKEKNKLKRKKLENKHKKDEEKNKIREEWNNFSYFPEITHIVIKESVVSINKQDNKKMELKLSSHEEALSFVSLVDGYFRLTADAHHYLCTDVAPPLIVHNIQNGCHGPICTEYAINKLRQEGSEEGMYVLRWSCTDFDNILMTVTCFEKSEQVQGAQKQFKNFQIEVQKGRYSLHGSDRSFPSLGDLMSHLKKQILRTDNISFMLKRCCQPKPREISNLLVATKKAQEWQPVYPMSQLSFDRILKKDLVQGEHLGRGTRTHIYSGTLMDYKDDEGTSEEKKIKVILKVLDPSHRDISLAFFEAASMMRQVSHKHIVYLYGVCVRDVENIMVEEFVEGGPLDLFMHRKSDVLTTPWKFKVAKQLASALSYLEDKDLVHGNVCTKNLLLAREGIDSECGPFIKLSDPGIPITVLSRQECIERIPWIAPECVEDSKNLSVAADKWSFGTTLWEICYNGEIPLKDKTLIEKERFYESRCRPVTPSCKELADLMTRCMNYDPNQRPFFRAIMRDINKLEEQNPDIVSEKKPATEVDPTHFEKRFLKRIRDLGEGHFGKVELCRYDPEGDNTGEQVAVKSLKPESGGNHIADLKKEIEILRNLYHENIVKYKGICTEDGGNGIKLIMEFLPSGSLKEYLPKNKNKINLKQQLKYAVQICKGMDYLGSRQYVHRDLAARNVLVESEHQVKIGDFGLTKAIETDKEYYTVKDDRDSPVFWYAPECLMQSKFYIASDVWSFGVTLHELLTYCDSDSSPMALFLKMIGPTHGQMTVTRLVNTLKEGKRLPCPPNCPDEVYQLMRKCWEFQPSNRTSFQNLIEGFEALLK
kinases (KINOMEscan panel) (Homo sapiens, UniProt P37023), sequence (P37023 22-503): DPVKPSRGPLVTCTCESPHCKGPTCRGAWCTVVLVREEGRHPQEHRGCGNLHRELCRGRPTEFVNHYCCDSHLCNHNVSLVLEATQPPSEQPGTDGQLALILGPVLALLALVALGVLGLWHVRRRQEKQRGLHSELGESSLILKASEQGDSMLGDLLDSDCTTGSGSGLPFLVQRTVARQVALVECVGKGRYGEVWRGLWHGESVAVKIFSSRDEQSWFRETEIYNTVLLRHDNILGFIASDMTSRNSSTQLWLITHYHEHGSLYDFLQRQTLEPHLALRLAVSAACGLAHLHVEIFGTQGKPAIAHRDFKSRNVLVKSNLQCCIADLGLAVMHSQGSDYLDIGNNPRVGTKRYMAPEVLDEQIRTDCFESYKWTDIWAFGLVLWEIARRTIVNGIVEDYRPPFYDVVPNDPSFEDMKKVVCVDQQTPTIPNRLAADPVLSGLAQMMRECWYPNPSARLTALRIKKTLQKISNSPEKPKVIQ

In the case of `Cc1cccc(-c2nc(Nc3ccncc3)c3ccccc3n2)n1` [NK215], the “KINOMEscan BRAF” value [1] is given as 0, the “KINOMEscan JAK1(JH1domain-catalytic)” value [2] is given as 0 and the “KINOMEscan CDK11A” value [3] is given as 0. The “KINOMEscan MKNK2” value [4] was 0, the “KINOMEscan ULK3” value [5] was 8 and the “KINOMEscan ACVRL1” value [6] was 65. The “KINOMEscan CSNK1G3” value [7] was 12, the “KINOMEscan RIPK4” value [8] was 0 and the “KINOMEscan MKNK1” value [9] was 0.
